Experiments:
Assay type in all cases: cell-based
[1] = test system: T1, isoprene monooxygenase (IsoMO) of Rhodococcus sp. AD45; assay: headspace substrate depletion, whole cells, non-linear regression; details: whole isoprene-grown cells; 50 mM phosphate pH 7.0, 30°C; O2 co-substrate; read-out: K m(app)
T1 construct: gene isoA; native enzyme in whole cells of isoprene-grown bacteria; four-component soluble diiron monooxygenase, a2b2g2 oxygenase; with Isoprene monooxygenase oxygenase component subunit gamma; Isoprene monooxygenase Rieske-type ferredoxin component; Isoprene monooxygenase oxygenase component subunit beta
From the text: headspace substrate depletion, whole cells, non-linear regression on isoprene monooxygenase (IsoMO) of Rhodococcus sp. AD45

[2] = test system: T2, isoprene monooxygenase (IsoMO) of Variovorax sp. WS11; assay: headspace isoprene depletion by gas chromatography, whole cells; details: whole fermentor-grown cells; O2 co-substrate; read-out: K m(app)
T2 construct: gene isoA; native enzyme in whole fermentor-grown cells; iso genes on a megaplasmid; with Isoprene monooxygenase oxygenase component subunit gamma; Isoprene monooxygenase Rieske-type ferredoxin component; Isoprene monooxygenase oxygenase component subunit beta
From the text: headspace isoprene depletion by gas chromatography, whole cells on isoprene monooxygenase (IsoMO) of Variovorax sp. WS11

[3] = test system: T1, isoprene monooxygenase (IsoMO) of Rhodococcus sp. AD45; assay: inhibition of isoprene uptake, headspace gas chromatography; details: whole cells; about 5 μM isoprene in liquid; 50 mM phosphate pH 7.0, 30°C; alkyne in DMSO

Structure (SMILES)	Km [1] [µM]	Km [2] [µM]	% inhibition at 50 μM [3] [%]
C=CC [propylene]	2 ± 0.8		
C=CC(=C)C [isoprene, 2‐methyl‐1,3‐butadiene]	4 ± 1.3	10.5 ± 3.9	
C#CCCCCCC [1‐octyne]			74
